Among the data in PubChem BioAssay (NCI) are TGI and GI50 values, retold here.

Among the test systems are CCRF-CEM leukemia; MALME-3M melanoma; HOP-92 NSCLC; UO-31 renal; TK-10 renal; HT29 colon; UACC-257 melanoma; OVCAR-4 ovarian; HCT-116 colon; CAKI-1 renal.
Test in all cases: NCI-60 cell line screen, 48 h

Where “and” joins values, the source holds several entries; their conditions need not be identical. Equal values may be shown once.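 96-well plates; 48 h exposure; 5 concentrations. Endpoints by linear interpolation between flanking doses. Not reached: highest tested concentration assigned. Abbreviation: GI50, concentration required for 50% inhibition of growth. Definition used: TGI = concentration required for complete inhibition of growth.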 Some results are limits rather than exact numbers.

`CC(C)c1cc2c(O)c(c1)Cc1cc(C(C)C)cc(c1O)Cc1cc(C(C)C)cc(c1O)Cc1cc(C(C)C)cc(c1O)Cc1cc(C(C)C)cc(c1O)Cc1cc(C(C)C)cc(c1O)C2`: the TGI in the assay on CCRF-CEM leukemia, with MALME-3M melanoma, in the assay with HOP-92 NSCLC, in the assay on UO-31 renal, in the assay with TK-10 renal and in the assay with HT29 colon was more than 100 µM each time. The TGI with UACC-257 melanoma, with OVCAR-4 ovarian and in the assay on HCT-116 colon was more than 100 µM throughout.

`CC(=O)OCC1OC(O[C@@H]2C[C@H]3C(C)(C)[C@H](OC(C)=O)CC[C@]3(C)[C@H]3CC[C@@H]4[C@]5(CC[C@@]4(C)[C@@]32C)O[C@@H]([C@H](O)C(C)(C)O)C[C@@H]5C)C(O)C(O)C1O` (some centres not stated): the GI50 with CCRF-CEM leukemia was 3.16 µM; in the assay on MALME-3M melanoma, 10.3 µM; in the assay with HOP-92 NSCLC it was 10 µM; with UO-31 renal, 7.85 µM; in the assay with HT29 colon, 1.83 µM; in the assay on UACC-257 melanoma, 11.4 µM. In addition, the GI50 was 3.35 µM with OVCAR-4 ovarian and 3.81 µM with HCT-116 colon. Further, the TGI was 20 µM in the assay with CCRF-CEM leukemia; 22.4 µM in the assay on MALME-3M melanoma; 21.6 µM in the assay with HOP-92 NSCLC; 20.8 µM with UO-31 renal; 13.5 µM in the assay on CAKI-1 renal; 4.28 µM with HT29 colon. Besides, the results for the TGI with UACC-257 melanoma, in the assay on OVCAR-4 ovarian and in the assay on HCT-116 colon were 24 µM, 16.4 µM and 15.1 µM, respectively.

In the case of `COc1cc(C(N)=O)c(OC)c(OC)c1OC`, the TGI in the assay on CCRF-CEM leukemia, with HOP-92 NSCLC, in the assay with UO-31 renal, in the assay with TK-10 renal, with HT29 colon and in the assay with OVCAR-4 ovarian was more than 100 µM in each case. For the same compound, the TGI in the assay on HCT-116 colon was more than 100 µM.

As to `C[C@H]1CC(=O)[C@@]2(O)C#C/C=C\C#C[C@@H]3Nc4c(cc(O)c5c4C(=O)c4ccccc4C5=O)[C@]24O[C@]314`, the GI50 in the assay on CCRF-CEM leukemia is 0.0025 µM; in the assay with CAKI-1 renal, 0.0025 µM; with TK-10 renal, 0.492 µM; in the assay with HT29 colon, 0.0253 µM; with UACC-257 melanoma, 0.00794 µM; with OVCAR-4 ovarian it was 0.351 µM. The GI50 with HCT-116 colon is 0.0025 µM. Further, the TGI in the assay on MALME-3M melanoma was 0.518 µM; in the assay with HOP-92 NSCLC, 0.336 µM; with CAKI-1 renal, 0.0597 µM and 0.0512 µM; with HT29 colon, more than 25 µM; in the assay with UACC-257 melanoma, 0.204 µM and 0.286 µM; in the assay on OVCAR-4 ovarian it was 0.648 µM and 1.92 µM. For the same compound, the TGI with HCT-116 colon was 0.178 µM and 0.0836 µM.

In the case of `CC(=O)Nc1[nH]c(=O)[nH]c(=O)c1N(C(C)=O)C(C)=O`, the TGI in the assay on CCRF-CEM leukemia, in the assay on MALME-3M melanoma, in the assay on HOP-92 NSCLC, in the assay on UO-31 renal, with CAKI-1 renal and in the assay on HT29 colon was more than 100 µM in each case. Also, the TGI in the assay on UACC-257 melanoma, in the assay on OVCAR-4 ovarian and with HCT-116 colon was more than 100 µM throughout.

`C(=C1/CCCCC([n+]2ccccc2)=N1)/c1ccccc1`: the TGI with CCRF-CEM leukemia, in the assay on MALME-3M melanoma, in the assay on HOP-92 NSCLC, in the assay on UO-31 renal, in the assay on CAKI-1 renal and in the assay with HT29 colon was more than 100 µM throughout. In addition, the TGI in the assay on OVCAR-4 ovarian and in the assay with HCT-116 colon was more than 100 µM throughout.

As for `Clc1cccc(C2SCc3nc4ccccc4n32)c1Cl` (configuration not stated), the TGI in the assay on CCRF-CEM leukemia was 48.2 µM; in the assay with HOP-92 NSCLC, 30.1 µM; with UO-31 renal it was 25.8 µM; in the assay with CAKI-1 renal, 34.1 µM; in the assay with TK-10 renal, 29.2 µM; with HT29 colon, 27.5 µM. The TGI with UACC-257 melanoma was 28.5 µM; in the assay with OVCAR-4 ovarian it was 27 µM; in the assay on HCT-116 colon it was 33.5 µM.

With `C=C1C(=O)O[C@H]2[C@H](OC(C)=O)[C@@H](C)CCC/C(C)=C/CC[C@]3(CO3)[C@H](O)C[C@@H]12`, the GI50 in the assay on CCRF-CEM leukemia was 1.87 µM; in the assay on MALME-3M melanoma, 2.69 µM; in the assay with HOP-92 NSCLC, 2.11 µM; in the assay with UO-31 renal it was 6.29 µM; in the assay with CAKI-1 renal it was 1.91 µM; in the assay with TK-10 renal it was 1.83 µM. Besides, the GI50 with HT29 colon is 3.23 µM; in the assay on UACC-257 melanoma it was 12.4 µM; in the assay on OVCAR-4 ovarian it was 6.89 µM. The TGI was 4.77 µM in the assay with CCRF-CEM leukemia; 12.3 µM in the assay with MALME-3M melanoma; 6.75 µM in the assay on HOP-92 NSCLC; 19.9 µM with UO-31 renal; 4.51 µM with CAKI-1 renal; 4.62 µM in the assay on TK-10 renal. The TGI with HT29 colon was found to be 11.5 µM; with UACC-257 melanoma, 26.1 µM; in the assay on OVCAR-4 ovarian it was 21.9 µM.

Consider `O=C(O)CNS(=O)(=O)c1ccc(NC(=O)c2cccc([N+](=O)[O-])c2)cc1`, for which the TGI with CCRF-CEM leukemia, in the assay on MALME-3M melanoma, in the assay with HOP-92 NSCLC, with UO-31 renal, in the assay with CAKI-1 renal and in the assay with TK-10 renal was more than 100 µM each time. The TGI in the assay with HT29 colon, with UACC-257 melanoma and with OVCAR-4 ovarian was more than 100 µM throughout.

Consider `C1CCN2CC34CC(CC5CCCN(C6CCCC3N6)C54)C2C1` (configuration not stated), for which the TGI in the assay on CCRF-CEM leukemia, with MALME-3M melanoma, with HOP-92 NSCLC, in the assay with CAKI-1 renal, in the assay on TK-10 renal and in the assay with HT29 colon was more than 100 µM each time. Moreover, the TGI in the assay with UACC-257 melanoma, in the assay on OVCAR-4 ovarian and in the assay on HCT-116 colon was more than 100 µM in each case.

Take `CCCCN=C(OC1C=CCCC1)SC` (configuration not stated): the TGI in the assay with CCRF-CEM leukemia, in the assay with MALME-3M melanoma, with HOP-92 NSCLC, with UO-31 renal, with TK-10 renal and in the assay with HT29 colon was more than 100 µM in each case. For the same compound, the TGI with UACC-257 melanoma, in the assay on OVCAR-4 ovarian and in the assay with HCT-116 colon was more than 100 µM throughout.

`CCOC(=O)c1cc2cc([N+](=O)[O-])ccc2oc1=O`: the TGI in the assay with CCRF-CEM leukemia, with MALME-3M melanoma, in the assay on HOP-92 NSCLC, with UO-31 renal, in the assay on CAKI-1 renal and in the assay on HT29 colon was more than 100 µM each time. Moreover, the TGI in the assay on UACC-257 melanoma, with OVCAR-4 ovarian and with HCT-116 colon was more than 100 µM throughout.
